Data: patent US8927500B2, “Peptidomimetic macrocycles” (Aileron Therapeutics, Inc., priority 2012, dated 2015)
Where two headings read alike, the source gives them in different places. Where a SMILES comes first, the peptide text is derived from it. Bridges are numbered along the chain shown (N, C = ends). [ ]: non-standard residue; d: D form. Phe(4-COOH) = N[C@@H](Cc1ccc(C(=O)O)cc1)C(=O)O; Phe(3,4-F2) = N[C@@H](Cc1ccc(F)c(F)c1)C(=O)O; R8 = C=CCCCCCC[C@@](C)(N)C(=O)O; Cba = N[C@@H](CC1CCC1)C(=O)O; S5 = C=CCCC[C@](C)(N)C(=O)O; Nle = CCCC[C@H](N)C(=O)O

How the values were obtained:
MDM2 = MDM2 (Homo sapiens, UniProt Q00987); test: Competitive fluorescence polarization assay for MDM2; type: binding; conditions: competitive FP assay, MDM2
Caspase 3 = Caspase 3 detection assay in SJSA1 cells; type: cell-based; conditions: 48 h, Caspase 3 activation over DMSO-treated cells; for caspase 0.3 uM: 0.3 uM peptide; for caspase 3 uM: 3 uM peptide; for caspase 10 uM: 10 uM peptide; for caspase 30 uM: 30 uM peptide
SJSA-1 cells = test: Cell lysis by peptidomimetic macrocycles (LDH release); type: cell-based; conditions: 1 h at 37C
Experimental: On the day of the assay, media was exchanged with RPMI 1% FBS media, 90 uL of media per well.
10 mM stock solutions of the peptidomimetic macrocycles were prepared in 100% DMSO.
The negative control (non-lytic) sample was 0.5% DMSO alone and positive control (lytic) samples include 10 uM Melittin and 1% Triton X-100.
Cell plates were incubated for 1 hour at 37C. After the 1 hour incubation, the morphology of the cells is examined by microscope and then the plates were centrifuged at 1200 rpm for 5 minutes at room temperature. 40 uL of supernatant for each peptidomimetic macrocycle and control sample is transferred to clear assay plates.

MDMX = target: T1, MDMX (Homo sapiens, UniProt O15151); test: Competitive fluorescence polarization assay for MDMX; type: binding; conditions: competitive FP assay
T1 sequence (O15151 1-125): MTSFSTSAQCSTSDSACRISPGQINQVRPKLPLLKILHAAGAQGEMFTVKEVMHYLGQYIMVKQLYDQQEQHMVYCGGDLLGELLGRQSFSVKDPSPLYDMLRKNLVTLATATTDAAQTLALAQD

Chain of MDM2 (Q00987 1-125): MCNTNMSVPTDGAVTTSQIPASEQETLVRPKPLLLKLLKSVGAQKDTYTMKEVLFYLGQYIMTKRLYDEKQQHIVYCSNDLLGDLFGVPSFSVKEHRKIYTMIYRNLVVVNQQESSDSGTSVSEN

Row | Compound | IC50 (MDM2; read-out: IC50 (MDM2)) [nM] | Ki (MDM2; read-out: Ki (MDM2)) [nM] | IC50 (MDMX; read-out: IC50 (MDMX)) [nM] | Ki (MDMX; read-out: Ki (MDMX)) [nM] | caspase 0.3 uM (Caspase 3) | caspase 3 uM (Caspase 3) | caspase 10 uM (Caspase 3) | caspase 30 uM (Caspase 3) | 6.25 uM % Lysed cells (1 h LDH) (SJSA-1 cells) [%] | 25 uM % Lysed cells (1 h LDH) (SJSA-1 cells) [%] | 50 uM % Lysed cells (1 h LDH) (SJSA-1 cells) [%] | IC50 (MDM2; IC50 (MDM2)) [nM] | Ki (MDM2; Ki (MDM2)) [nM] | IC50 (MDMX; IC50 (MDMX)) [nM] | Ki (MDMX; Ki (MDMX)) [nM]
1 | CC(=O)N[C@@H](CC(C)C)C(=O)N[C@H](C(=O)N[C@@H](Cc1ccccc1)C(=O)N[C@]1(C)CCCCCCC=CCCC[C@@](C)(C(=O)N[C@@H](CO)C(=O)N[C@@H](C)C(=O)N[C@@H](C)C(N)=O)NC(=O)[C@H](CC(C)C)NC(=O)[C@H](C)NC(=O)[C@H](C)NC(=O)[C@H](Cc2c[nH]c3ccccc23)NC(=O)[C@H](Cc2c[nH]cn2)NC(=O)[C@H](C)NC1=O)[C@@H](C)O [compound 197] (Ac-LTF[R8]AHWAAL[S5]SAA-NH2; staple 4-11) |  |  |  |  | 1 | 1 | 10 | 20 | 1 | −1 | −2 | < 10 | < 10 | 100 to 1000 | 10 to 100
2 | CCCC[C@H](NC(=O)[C@H](C)NC(=O)[C@H](CO)NC(=O)[C@]1(C)CCCC=CCCCCCC[C@@](C)(NC(=O)[C@H](Cc2ccccc2)NC(=O)[C@@H](NC(=O)[C@H](CC(C)C)NC(C)=O)[C@@H](C)O)C(=O)N[C@@H](CCC(=O)O)C(=O)N[C@@H](Cc2ccc(O)cc2)C(=O)N[C@@H](Cc2c[nH]c3ccccc23)C(=O)N[C@@H](CO)C(=O)N[C@@H](CCC(N)=O)C(=O)N[C@@H](CC2CCC2)C(=O)N1)C(=O)N[C@@H](C)C(N)=O [compound 245] (Ac-LTF[R8]EYWSQ[Cba][S5]SA[Nle]A-NH2; staple 4-11) | 10 to 100 | < 10 | 10 to 100 | 10 to 100 | 1 | 3 | 9 | 16 | 1 | 11 | 56 |  |  |  | 
3 | CC[C@H](C)[C@H](NC(=O)[C@H](C)NC(=O)[C@H](C)NC(=O)[C@]1(C)CCCC=CCCCCCC[C@@](C)(NC(=O)[C@H](Cc2ccccc2)NC(=O)[C@@H](NC(=O)[C@H](CC(C)C)NC(C)=O)[C@@H](C)O)C(=O)N[C@@H](CCC(=O)O)C(=O)N[C@@H](Cc2ccc(O)cc2)C(=O)N[C@@H](Cc2c[nH]c3ccccc23)C(=O)N[C@@H](C)C(=O)N[C@@H](CCC(N)=O)C(=O)N[C@@H](CC2CCC2)C(=O)N1)C(=O)N[C@H](C)C(N)=O [compound 247] (Ac-LTF[R8]EYWAQ[Cba][S5]AAI[dA]-NH2; staple 4-11) | 10 to 100 | < 10 | 10 to 100 | 10 to 100 | 1 | 3 | 11 | 24 | 0 | 0 | 4 |  |  |  | 
4 | CC[C@H](C)[C@H](NC(=O)[C@H](C)NC(=O)[C@H](C)NC(=O)[C@]1(C)CCC/C=C/CCCCCC[C@@](C)(NC(=O)[C@H](Cc2ccccc2)NC(=O)[C@@H](NC(=O)[C@H](CC(C)C)NC(C)=O)[C@@H](C)O)C(=O)N[C@@H](CCC(=O)O)C(=O)N[C@@H](Cc2ccc(C(=O)O)cc2)C(=O)N[C@@H](Cc2c[nH]c3ccccc23)C(=O)N[C@@H](C)C(=O)N[C@@H](CCC(N)=O)C(=O)N[C@@H](CC2CCC2)C(=O)N1)C(=O)N[C@H](C)C(N)=O [compound 249] (Ac-LTF[R8]E[Phe(4-COOH)]WAQ[Cba][S5]AAI[dA]-NH2; staple (E) 4-11) | 10 to 100 | < 10 | 10 to 100 | < 10 | 2 | 5 | 11 | 23 | 0 | 0 | 0 |  |  |  | 

Further lines, with some results ahead:

Row | IC50 (MDM2; read-out: IC50 (MDM2)) [nM] | Ki (MDM2; read-out: Ki (MDM2)) [nM] | IC50 (MDMX; read-out: IC50 (MDMX)) [nM] | Ki (MDMX; read-out: Ki (MDMX)) [nM] | Compound | caspase 0.3 uM (Caspase 3) | caspase 3 uM (Caspase 3) | caspase 10 uM (Caspase 3) | caspase 30 uM (Caspase 3) | 6.25 uM % Lysed cells (1 h LDH) (SJSA-1 cells) [%] | 25 uM % Lysed cells (1 h LDH) (SJSA-1 cells) [%] | 50 uM % Lysed cells (1 h LDH) (SJSA-1 cells) [%] | IC50 (MDM2; IC50 (MDM2)) [nM] | Ki (MDM2; Ki (MDM2)) [nM] | IC50 (MDMX; IC50 (MDMX)) [nM] | Ki (MDMX; Ki (MDMX)) [nM]
5 | 10 to 100 | < 10 | 100 to 1000 | 10 to 100 | CC[C@H](C)[C@H](NC(C)=O)C(=O)N[C@H](C(=O)N[C@@H](Cc1ccccc1)C(=O)N[C@]1(C)CCCCCCC=CCCC[C@@](C)(C(=O)N[C@@H](C)C(=O)N[C@@H](C)C(=O)N[C@H](C(=O)N[C@H](C)C(N)=O)[C@@H](C)CC)NC(=O)[C@H](CC(C)C)NC(=O)[C@H](CCC(N)=O)NC(=O)[C@H](C(C)C)NC(=O)[C@H](Cc2c[nH]c3ccccc23)NC(=O)[C@H](Cc2ccc(O)cc2)NC(=O)[C@H](Cc2ccccc2)NC1=O)[C@@H](C)O [compound 177] (Ac-ITF[R8]FYWVQL[S5]AAI[dA]-NH2; staple 4-11) | 1 | 1 | 8 | 20 | −1 | 0 | 1 |  |  |  | 
6 | 10 to 100 | < 10 | 100 to 1000 | 10 to 100 | CC(=O)N[C@@H](CC(C)C)C(=O)N[C@H](C(=O)N[C@@H](Cc1ccccc1)C(=O)N[C@]1(C)CCCCCCC=CCCC[C@@](C)(C(=O)N[C@@H](CO)C(=O)N[C@@H](C)C(=O)N[C@@H](C)C(N)=O)NC(=O)[C@H](CC(C)C)NC(=O)[C@H](C)NC(=O)[C@H](C(C)C)NC(=O)[C@H](Cc2c[nH]c3ccccc23)NC(=O)[C@H](Cc2ccc(O)cc2)NC(=O)[C@H](C)NC1=O)[C@@H](C)O [compound 196] (Ac-LTF[R8]AYWVAL[S5]SAA-NH2; staple 4-11) | 1 | 4 | 33 | 26 | 0 | 0 | 3 |  |  |  | 
7 | 10 to 100 | < 10 | 100 to 1000 | 10 to 100 | CC(=O)N[C@@H](CC(C)C)C(=O)N[C@H](C(=O)N[C@@H](Cc1ccccc1)C(=O)N[C@]1(C)CCCCCCC=CCCC[C@@](C)(C(=O)N[C@@H](C)C(=O)N[C@@H](Cc2c[nH]cn2)C(=O)N[C@@H](Cc2ccccc2)C(=O)N[C@@H](C)C(N)=O)NC(=O)[C@H](CC(C)C)NC(=O)[C@H](C)NC(=O)[C@H](C)NC(=O)[C@H](Cc2c[nH]c3ccccc23)NC(=O)[C@H](Cc2ccc(O)cc2)NC(=O)[C@H](C)NC1=O)[C@@H](C)O [compound 204] (Ac-LTF[R8]AYWAAL[S5]AHFA-NH2; staple 4-11) | 1 | 4 | 10 | 10 | 4 | 2 | 0 |  |  |  | 
8 | 10 to 100 | < 10 | 100 to 1000 | 10 to 100 | CCCC[C@H](NC(=O)[C@H](C)NC(=O)[C@H](C)NC(=O)[C@]1(C)CCCC=CCCCCCC[C@@](C)(NC(=O)[C@H](Cc2ccccc2)NC(=O)[C@@H](NC(=O)[C@H](CCC(=O)O)NC(C)=O)[C@@H](C)O)C(=O)N[C@@H](C)C(=O)N[C@@H](Cc2ccc(O)cc2)C(=O)N[C@@H](Cc2c[nH]c3ccccc23)C(=O)N[C@@H](C)C(=O)N[C@@H](CCC(N)=O)C(=O)N[C@@H](CC2CCC2)C(=O)N1)C(=O)N[C@@H](C)C(N)=O [compound 237] (Ac-ETF[R8]AYWAQ[Cba][S5]AA[Nle]A-NH2; staple 4-11) | 1 | 5 | 9 | 15 | 0 | 7 | 55 |  |  |  | 
9 | 10 to 100 | < 10 | 10 to 100 | 10 to 100 | CCCC[C@H](NC(=O)[C@H](C)NC(=O)[C@H](CO)NC(=O)[C@]1(C)CCCC=CCCCCCC[C@@](C)(NC(=O)[C@H](Cc2ccc(F)c(F)c2)NC(=O)[C@@H](NC(=O)[C@H](CC(C)C)NC(C)=O)[C@@H](C)O)C(=O)N[C@@H](CCC(=O)O)C(=O)N[C@@H](Cc2ccc(O)cc2)C(=O)N[C@@H](Cc2c[nH]c3ccccc23)C(=O)N[C@@H](C)C(=O)N[C@@H](CCC(N)=O)C(=O)N[C@@H](CC2CCC2)C(=O)N1)C(=O)N[C@@H](C)C(N)=O [compound 243] (Ac-LT[Phe(3,4-F2)][R8]EYWAQ[Cba][S5]SA[Nle]A-NH2; staple 4-11) | 1 | 2 | 5 | 23 | 4 | 39 | 64 |  |  |  | 
10 | 10 to 100 | < 10 | 10 to 100 | < 10 | CCCC[C@H](NC(=O)[C@H](C)NC(=O)[C@H](CO)NC(=O)[C@]1(C)CCCC=CCCCCCC[C@@](C)(NC(=O)[C@H](Cc2ccccc2)NC(=O)[C@@H](NC(=O)[C@H](CC(C)C)NC(C)=O)[C@@H](C)O)C(=O)N[C@@H](CCC(=O)O)C(=O)N[C@@H](Cc2ccc(C(=O)O)cc2)C(=O)N[C@@H](Cc2c[nH]c3ccccc23)C(=O)N[C@@H](C)C(=O)N[C@@H](CCC(N)=O)C(=O)N[C@@H](CC2CCC2)C(=O)N1)C(=O)N[C@@H](C)C(N)=O [compound 244] (Ac-LTF[R8]E[Phe(4-COOH)]WAQ[Cba][S5]SA[Nle]A-NH2; staple 4-11) | 1 | 2 | 7 | 17 | 0 | 0 | 4 |  |  |  | 
